In patent US20250312462A1, “PAK1 DEGRADERS AND METHODS OF USE THEREOF” (INSTITUTE FOR CANCER RESEARCH D/B/A THE RESEARCH INSTITUTE …, priority 2022, published 2025):

Tests used:
PFCDPK1(P. falciparum) = biological target: T1, PFCDPK1(P. falciparum) (Plasmodium falciparum, UniProt P62344); assay: KINOMEscan; format: binding; details: read-out: Percent Control
T1 construct: purchased DiscoverX

PAK7 = PAK7 (Homo sapiens, UniProt Q9P286); assay: KINOMEscan; details: read-out: Percent Control
Protocol: (§1) The kinase engagement assay (KINOMEscan®) was performed by DiscoverX assessing binding abilities toward a set of kinases.

CAMKK1 = CAMKK1 (Homo sapiens, UniProt Q8N5S9); assay: KINOMEscan; details: read-out: Percent Control
Protocol: as §1

ERK4 = ERK4 (Homo sapiens, UniProt P31152); assay: KINOMEscan; details: read-out: Percent Control
Protocol: as §1

CHEK2 = CHEK2 (Homo sapiens, UniProt O96017); assay: KINOMEscan; details: read-out: Percent Control
Protocol: as §1

NEK5 = NEK5 (Homo sapiens, UniProt Q6P3R8); assay: KINOMEscan; details: read-out: Percent Control
Protocol: as §1

CAMK1D = CAMK1D (Homo sapiens, UniProt Q8IU85); assay: KINOMEscan; details: read-out: Percent Control
Protocol: as §1

DCAMKL3 = DCAMKL3 (Homo sapiens, UniProt Q9C098); assay: KINOMEscan; details: read-out: Percent Control
Protocol: as §1

EPHA4 = EPHA4 (Homo sapiens, UniProt P54764); assay: KINOMEscan; details: read-out: Percent Control
Protocol: as §1

SBK1 = SBK1 (Homo sapiens, UniProt Q52WX2); assay: KINOMEscan; details: read-out: Percent Control
Protocol: as §1

RIOK1 = RIOK1 (Homo sapiens, UniProt Q9BRS2); assay: KINOMEscan; details: read-out: Percent Control
Protocol: as §1

MYO3B = MYO3B (Homo sapiens, UniProt Q8WXR4); assay: KINOMEscan; details: read-out: Percent Control
Protocol: as §1

CSF1R = CSF1R (Homo sapiens, UniProt P07333); assay: KINOMEscan; details: read-out: Percent Control
Protocol: as §1

CTK = CTK (Homo sapiens, UniProt P42679); assay: KINOMEscan; details: read-out: Percent Control
Protocol: as §1

HASPIN = HASPIN (Homo sapiens, UniProt Q8TF76); assay: KINOMEscan; details: read-out: Percent Control
Protocol: as §1

PKAC-alpha = PKAC-alpha (Homo sapiens, UniProt P17612); assay: KINOMEscan; details: read-out: Percent Control
Protocol: as §1

[1] = biological target: ABL1(F317I)-nonphosphorylated (Homo sapiens, UniProt P00519, F317I); assay: KINOMEscan; details: read-out: Percent Control
Protocol: as §1

DCAMKL2 = DCAMKL2 (Homo sapiens, UniProt Q8N568); assay: KINOMEscan; details: read-out: Percent Control
Protocol: as §1

INSR = INSR (Homo sapiens, UniProt P06213); assay: KINOMEscan; details: read-out: Percent Control
Protocol: as §1

MYLK2 = MYLK2 (Homo sapiens, UniProt Q9H1R3); assay: KINOMEscan; details: read-out: Percent Control
Protocol: as §1

YSK4 = YSK4 (Homo sapiens, UniProt Q56UN5); assay: KINOMEscan; details: read-out: Percent Control
Protocol: as §1

PRKCH = PRKCH (Homo sapiens, UniProt P24723); assay: KINOMEscan; details: read-out: Percent Control
Protocol: as §1

ZAK = ZAK (Homo sapiens, UniProt Q9NYL2); assay: KINOMEscan; details: read-out: Percent Control
Protocol: as §1

BMPR1A = BMPR1A (Homo sapiens, UniProt P36894); assay: KINOMEscan; details: read-out: Percent Control
Protocol: as §1

ICK = ICK (Homo sapiens, UniProt Q9UPZ9); assay: KINOMEscan; details: read-out: Percent Control
Protocol: as §1

DYRK1A = DYRK1A (Homo sapiens, UniProt Q13627); assay: KINOMEscan; details: read-out: Percent Control
Protocol: as §1

MINK = MINK (Homo sapiens, UniProt Q8N4C8); assay: KINOMEscan; details: read-out: Percent Control
Protocol: as §1

PIK3CA(E545A) = PIK3CA(E545A) (Homo sapiens, UniProt P42336, E545A); assay: KINOMEscan; details: read-out: Percent Control
Protocol: as §1

PIP5K2B = PIP5K2B (Homo sapiens, UniProt P78356); assay: KINOMEscan; details: read-out: Percent Control
Protocol: as §1

TBK1 = TBK1 (Homo sapiens, UniProt Q9UHD2); assay: KINOMEscan; details: read-out: Percent Control
Protocol: as §1

TGFBR1 = TGFBR1 (Homo sapiens, UniProt P36897); assay: KINOMEscan; details: read-out: Percent Control
Protocol: as §1

PAK2 = PAK2 (Homo sapiens, UniProt Q13177); assay: Z'-LYTE FRET kinase inhibition assay; format: biochemical; parameters: PAK2 (full length); purchased Invitrogen PV4565
Protocol: The activity/inhibition of human recombinant PAK1 (kinase domain) or PAK2 (full length) was determined by measuring the phosphorylation of a FRET peptide substrate (Ser/Thr19) labeled with Coumarin and Fluorescein using Z′-LYTE™ assay (Invitrogen). The 10 μL assay mixtures contained 50 mM HEPES (pH 7.5), 0.01% Brij-35, 10 mM MgCl2, 1 mM EGTA, 2 μM FRET peptide substrate, and PAK enzyme (20 pM PAK1; 50 pM PAK2). Incubations were carried out at 22° C. in black polypropylene 384-well plates (Corning Costar). Prior to the assay, enzyme, FRET peptide substrate and serially diluted test compounds were preincubated together in assay buffer (7.5 μL) for 10 minutes, and the assay was initiated by the addition of 2.5 μL assay buffer containing 4×ATP (160 μM PAK1; 480 μM PAK2). Following the 60-minute incubation, the assay mixtures were quenched by the addition of 5 μL of Z′-LYTE™ development reagent, and 1 hour later the emissions of Coumarin (445 nm) and Fluorescein (520 nm) were determined after excitation at 400 nm using an Envision plate reader (Perkin Elmer). […].

PIP5K2B, sequence (P78356 whole entry): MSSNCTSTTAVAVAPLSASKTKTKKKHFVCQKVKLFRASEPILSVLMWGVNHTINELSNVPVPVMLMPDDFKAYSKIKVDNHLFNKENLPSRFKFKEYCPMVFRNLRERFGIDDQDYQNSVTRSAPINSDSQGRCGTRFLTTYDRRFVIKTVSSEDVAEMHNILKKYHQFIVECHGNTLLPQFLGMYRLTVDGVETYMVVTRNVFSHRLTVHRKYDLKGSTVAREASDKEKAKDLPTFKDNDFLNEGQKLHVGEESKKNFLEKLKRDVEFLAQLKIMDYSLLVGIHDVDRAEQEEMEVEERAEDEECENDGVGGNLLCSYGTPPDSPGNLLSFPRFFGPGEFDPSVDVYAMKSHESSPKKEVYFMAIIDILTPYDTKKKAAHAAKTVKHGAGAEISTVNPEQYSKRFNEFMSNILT
NEK5, sequence (Q6P3R8 whole entry): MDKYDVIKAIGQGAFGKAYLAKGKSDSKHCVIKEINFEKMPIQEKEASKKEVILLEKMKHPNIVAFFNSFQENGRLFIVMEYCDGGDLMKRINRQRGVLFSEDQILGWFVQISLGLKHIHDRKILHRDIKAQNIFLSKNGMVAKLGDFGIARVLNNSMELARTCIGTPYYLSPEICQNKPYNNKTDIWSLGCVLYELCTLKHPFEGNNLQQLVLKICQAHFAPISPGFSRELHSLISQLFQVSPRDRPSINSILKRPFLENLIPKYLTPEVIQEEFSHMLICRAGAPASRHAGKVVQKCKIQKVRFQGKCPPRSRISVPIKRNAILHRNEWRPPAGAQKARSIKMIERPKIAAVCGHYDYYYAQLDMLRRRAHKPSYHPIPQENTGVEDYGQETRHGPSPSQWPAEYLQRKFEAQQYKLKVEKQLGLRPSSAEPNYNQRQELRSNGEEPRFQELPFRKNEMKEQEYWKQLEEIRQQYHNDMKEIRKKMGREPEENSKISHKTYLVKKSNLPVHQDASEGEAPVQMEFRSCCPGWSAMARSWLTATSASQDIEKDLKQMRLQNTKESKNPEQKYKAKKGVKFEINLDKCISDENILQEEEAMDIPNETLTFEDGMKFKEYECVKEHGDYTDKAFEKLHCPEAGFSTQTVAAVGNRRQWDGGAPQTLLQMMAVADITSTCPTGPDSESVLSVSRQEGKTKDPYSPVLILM
T1 sequence (P62344 whole entry): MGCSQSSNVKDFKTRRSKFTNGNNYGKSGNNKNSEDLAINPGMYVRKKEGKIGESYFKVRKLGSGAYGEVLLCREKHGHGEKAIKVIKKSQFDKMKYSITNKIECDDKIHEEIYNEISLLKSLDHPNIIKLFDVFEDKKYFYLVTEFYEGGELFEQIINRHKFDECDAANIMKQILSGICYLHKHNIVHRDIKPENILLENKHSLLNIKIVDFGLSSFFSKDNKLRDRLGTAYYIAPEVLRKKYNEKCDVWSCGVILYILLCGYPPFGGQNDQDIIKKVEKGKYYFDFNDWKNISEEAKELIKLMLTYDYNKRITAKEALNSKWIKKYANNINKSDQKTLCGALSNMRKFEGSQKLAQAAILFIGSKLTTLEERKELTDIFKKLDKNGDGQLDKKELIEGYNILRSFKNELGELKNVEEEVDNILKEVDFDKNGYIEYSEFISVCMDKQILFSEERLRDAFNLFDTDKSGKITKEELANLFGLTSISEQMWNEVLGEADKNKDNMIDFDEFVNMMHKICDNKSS
DCAMKL2, sequence (Q8N568 whole entry): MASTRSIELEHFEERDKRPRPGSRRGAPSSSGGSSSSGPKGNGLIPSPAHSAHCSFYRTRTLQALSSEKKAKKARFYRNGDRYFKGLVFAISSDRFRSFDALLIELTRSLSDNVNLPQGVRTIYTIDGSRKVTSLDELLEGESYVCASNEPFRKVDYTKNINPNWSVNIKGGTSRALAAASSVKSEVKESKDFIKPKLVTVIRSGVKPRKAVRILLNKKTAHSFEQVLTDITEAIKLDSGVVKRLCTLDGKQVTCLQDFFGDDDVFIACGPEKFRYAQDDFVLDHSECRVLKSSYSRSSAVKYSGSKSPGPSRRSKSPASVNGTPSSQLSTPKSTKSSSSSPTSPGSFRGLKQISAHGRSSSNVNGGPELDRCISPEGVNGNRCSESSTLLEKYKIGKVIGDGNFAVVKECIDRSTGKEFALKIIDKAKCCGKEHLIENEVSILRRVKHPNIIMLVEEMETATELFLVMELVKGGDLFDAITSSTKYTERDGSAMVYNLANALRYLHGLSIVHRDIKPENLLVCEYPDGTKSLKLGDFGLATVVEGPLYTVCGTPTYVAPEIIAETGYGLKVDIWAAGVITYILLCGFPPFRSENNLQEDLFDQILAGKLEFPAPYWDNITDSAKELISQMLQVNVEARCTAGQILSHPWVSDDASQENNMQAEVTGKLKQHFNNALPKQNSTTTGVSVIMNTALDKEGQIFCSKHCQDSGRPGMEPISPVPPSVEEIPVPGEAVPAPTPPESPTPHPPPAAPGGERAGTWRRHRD
CTK, sequence (P42679 whole entry): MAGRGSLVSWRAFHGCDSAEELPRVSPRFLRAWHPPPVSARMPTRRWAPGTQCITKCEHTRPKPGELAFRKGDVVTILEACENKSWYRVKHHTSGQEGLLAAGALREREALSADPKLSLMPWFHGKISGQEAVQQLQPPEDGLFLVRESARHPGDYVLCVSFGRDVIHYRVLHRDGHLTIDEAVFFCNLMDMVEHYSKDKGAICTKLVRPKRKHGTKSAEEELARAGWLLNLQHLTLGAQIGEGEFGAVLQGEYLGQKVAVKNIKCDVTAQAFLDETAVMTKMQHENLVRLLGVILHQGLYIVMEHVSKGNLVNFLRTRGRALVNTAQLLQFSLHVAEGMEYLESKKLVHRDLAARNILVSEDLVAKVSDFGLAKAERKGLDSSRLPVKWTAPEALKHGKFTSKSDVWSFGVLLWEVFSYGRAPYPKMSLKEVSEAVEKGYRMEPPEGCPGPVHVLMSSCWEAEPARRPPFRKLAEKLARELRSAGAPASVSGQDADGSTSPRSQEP
TGFBR1, sequence (P36897 34-503): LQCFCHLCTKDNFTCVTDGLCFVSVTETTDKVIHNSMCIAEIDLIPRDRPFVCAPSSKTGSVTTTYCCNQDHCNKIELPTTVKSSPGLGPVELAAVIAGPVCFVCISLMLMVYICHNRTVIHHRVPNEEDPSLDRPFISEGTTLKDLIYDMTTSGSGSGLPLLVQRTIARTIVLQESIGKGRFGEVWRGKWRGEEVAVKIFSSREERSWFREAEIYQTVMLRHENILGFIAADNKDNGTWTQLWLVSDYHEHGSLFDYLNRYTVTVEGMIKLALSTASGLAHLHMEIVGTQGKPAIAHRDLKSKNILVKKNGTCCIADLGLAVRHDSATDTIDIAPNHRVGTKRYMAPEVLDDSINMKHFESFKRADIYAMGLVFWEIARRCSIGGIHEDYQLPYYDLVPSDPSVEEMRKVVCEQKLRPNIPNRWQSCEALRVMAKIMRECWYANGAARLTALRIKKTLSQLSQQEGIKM
SBK1, sequence (Q52WX2 whole entry): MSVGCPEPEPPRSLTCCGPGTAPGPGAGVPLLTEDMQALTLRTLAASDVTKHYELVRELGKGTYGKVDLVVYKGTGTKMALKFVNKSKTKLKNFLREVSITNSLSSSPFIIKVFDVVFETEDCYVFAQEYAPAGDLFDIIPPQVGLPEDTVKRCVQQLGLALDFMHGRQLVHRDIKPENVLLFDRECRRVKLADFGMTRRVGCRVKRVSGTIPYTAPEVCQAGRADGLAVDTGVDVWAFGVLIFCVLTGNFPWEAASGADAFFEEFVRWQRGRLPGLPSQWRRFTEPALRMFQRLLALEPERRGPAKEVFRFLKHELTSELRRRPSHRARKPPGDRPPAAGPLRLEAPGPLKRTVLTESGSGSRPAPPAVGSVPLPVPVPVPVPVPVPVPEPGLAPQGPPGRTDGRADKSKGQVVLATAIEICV
CAMK1D, sequence (Q8IU85 whole entry): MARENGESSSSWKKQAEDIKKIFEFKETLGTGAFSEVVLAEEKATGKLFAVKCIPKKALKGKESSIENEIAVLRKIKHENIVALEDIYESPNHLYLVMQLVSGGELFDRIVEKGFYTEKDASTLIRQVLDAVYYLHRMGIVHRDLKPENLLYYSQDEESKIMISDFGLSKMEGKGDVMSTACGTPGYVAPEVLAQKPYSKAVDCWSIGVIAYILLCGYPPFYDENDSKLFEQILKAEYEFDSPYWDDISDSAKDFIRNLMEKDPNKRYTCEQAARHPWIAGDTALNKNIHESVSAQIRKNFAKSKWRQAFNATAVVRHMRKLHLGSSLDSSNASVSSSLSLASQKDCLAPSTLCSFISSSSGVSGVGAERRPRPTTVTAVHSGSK
PAK7, sequence (Q9P286 whole entry): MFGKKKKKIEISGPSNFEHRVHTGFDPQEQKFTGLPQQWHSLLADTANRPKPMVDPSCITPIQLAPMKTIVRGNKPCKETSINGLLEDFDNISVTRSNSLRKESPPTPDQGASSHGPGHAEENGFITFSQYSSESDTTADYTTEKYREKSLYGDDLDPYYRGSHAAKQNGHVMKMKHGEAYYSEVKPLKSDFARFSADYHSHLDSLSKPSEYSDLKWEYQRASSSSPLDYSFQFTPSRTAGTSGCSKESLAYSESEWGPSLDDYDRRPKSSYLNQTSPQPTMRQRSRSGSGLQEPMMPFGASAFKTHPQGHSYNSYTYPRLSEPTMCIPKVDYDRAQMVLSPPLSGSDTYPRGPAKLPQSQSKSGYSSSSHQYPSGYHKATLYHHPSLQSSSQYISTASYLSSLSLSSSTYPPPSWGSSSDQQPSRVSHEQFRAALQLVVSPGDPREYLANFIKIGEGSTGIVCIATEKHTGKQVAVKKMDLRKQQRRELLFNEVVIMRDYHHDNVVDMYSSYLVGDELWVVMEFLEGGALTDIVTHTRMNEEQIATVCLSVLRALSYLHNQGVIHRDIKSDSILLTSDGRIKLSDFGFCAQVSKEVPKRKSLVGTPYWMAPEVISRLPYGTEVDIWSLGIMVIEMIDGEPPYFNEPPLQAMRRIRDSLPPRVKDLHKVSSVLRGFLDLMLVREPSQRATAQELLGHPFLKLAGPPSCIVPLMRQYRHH

## O=C1CCC(N2C(=O)c3cccc(NCCCCCCCCNC(=O)N4CC[C@H](NC5=Nc6cc(F)ccc6N(CC(F)F)c6ccc(Cl)cc65)C4)c3C2=O)C(=O)N1 (stereo partly drawn) [BJG-05-039, (3S)-3-((2-Chloro-5-(2,2-difluoroethyl)-8-fluoro-5H-dibenzo[b,e][1,4]diazepin-11-yl)amino)-N-(8-((2-(2,6-dioxopiperidin-3-yl)-1,3-dioxoisoindolin-4-yl)amino)octyl)pyrrolidine-1-carboxamide]
PFCDPK1(P. falciparum)
  remaining binding at 10 µM: 98%
PAK7
  remaining binding at 10 µM: 42%
CAMKK1
  remaining binding at 10 µM: 52%
ERK4
  remaining binding at 10 µM: 52%
CHEK2
  remaining binding at 10 µM: 62%
NEK5
  remaining binding at 10 µM: 65%
CAMK1D
  remaining binding at 10 µM: 68%
DCAMKL3
  remaining binding at 10 µM: 79%
EPHA4
  remaining binding at 10 µM: 82%
SBK1
  remaining binding at 10 µM: 82%
RIOK1
  remaining binding at 10 µM: 84%
MYO3B
  remaining binding at 10 µM: 88%
CSF1R
  remaining binding at 10 µM: 89%
CTK
  remaining binding at 10 µM: 89%
HASPIN
  remaining binding at 10 µM: 90%
PKAC-alpha
  remaining binding at 10 µM: 90%
[1]
  remaining binding at 10 µM: 91%
DCAMKL2
  remaining binding at 10 µM: 92%
INSR
  remaining binding at 10 µM: 93%
MYLK2
  remaining binding at 10 µM: 93%
YSK4
  remaining binding at 10 µM: 93%
PRKCH
  remaining binding at 10 µM: 94%
ZAK
  remaining binding at 10 µM: 97%
BMPR1A
  remaining binding at 10 µM: 98%
ICK
  remaining binding at 10 µM: 99%
DYRK1A
  remaining binding at 10 µM: 100%
MINK
  remaining binding at 10 µM: 100%
PIK3CA(E545A)
  remaining binding at 10 µM: 100%
PIP5K2B
  remaining binding at 10 µM: 100%
TBK1
  remaining binding at 10 µM: 100%
TGFBR1
  remaining binding at 10 µM: 100%
PAK2
  IC50: > 10 µM
